Measurements published in EPA's ToxValDB 9.5.

What was measured:
[1] = test system: Rattus norvegicus; details: short-term, duration: 28 days, oral, gavage, M, Sprague-Dawley
[2] = test system: Oryctolagus sp.; details: reproduction developmental; duration: 13 days; oral; F; New Zealand
[3] = test system: Rattus norvegicus; details: oral
[4] = test system: Mus musculus; details: uterotrophic; duration: 3 days; oral; Active

Compound: O=C(O)C(F)(F)C(F)(F)C(F)(F)C(F)(F)C(F)(F)C(F)(F)C(F)(F)F [Perfluorooctanoic acid]
- LOEL ([1]; Clinical chemistry_Direct bilirubin): 10 mg/kg-day
- LOEL ([1]; Clinical chemistry_Free thyroxine): 0.625 mg/kg-day
- LOEL ([1]; Clinical chemistry_Globulin): 0.625 mg/kg-day
- NOEL ([1]; Clinical chemistry_Sorbitol dehydrogenase): 10 mg/kg-day
- NOEL ([1]; Clinical chemistry_Testosterone): 10 mg/kg-day
- LOEL ([1]; Clinical chemistry_Thyroid stimulating hormone): 5 mg/kg-day
- LOEL ([1]; Clinical chemistry_Total bile acids): 5 mg/kg-day
- LOEL ([1]; Clinical chemistry_Total protein): 0.625 mg/kg-day
- LOEL ([1]; Clinical chemistry_Total thyroxine): 0.625 mg/kg-day
- LOEL ([1]; Clinical chemistry_Total triiodothyronine): 0.625 mg/kg-day
- LOEL ([1]; Clinical chemistry_Triglycerides): 0.625 mg/kg-day
- LOEL ([1]; Gene expression_Acox1): 0.625 mg/kg-day
- LOEL ([1]; Gene expression_Acyl-CoA oxidase): 0.625 mg/kg-day
- LOEL ([1]; Gene expression_Cyp2b1): 0.625 mg/kg-day
- LOEL ([1]; Gene expression_Cyp2b2): 0.625 mg/kg-day
- LOEL ([1]; Gene expression_Cyp4a1): 0.625 mg/kg-day
- LOEL ([1]; Hematology_Erythrocytes): 1.25 mg/kg-day
- LOEL ([1]; Hematology_Hematocrit): 1.25 mg/kg-day
- LOEL ([1]; Hematology_Hemoglobin): 1.25 mg/kg-day
- NOEL ([1]; Hematology_Mean corpuscular hemoglobin concentration): 10 mg/kg-day
- LOEL ([1]; Hematology_Mean corpuscular volume): 10 mg/kg-day
- NOEL ([1]; Hematology_Platelets): 10 mg/kg-day
- LOEL ([1]; Hematology_Reticulocytes): 0.625 mg/kg-day
- LOEL ([1]; Nonneoplastic effects_Bone marrow - Hypocellularity): 10 mg/kg-day
- NOEL ([1]; Nonneoplastic effects_Epididymis - Duct, exfoliated germ cell): 10 mg/kg-day
- NOEL ([1]; Nonneoplastic effects_Epididymis - Epithelium, apoptosis): 10 mg/kg-day
- NOEL ([1]; Nonneoplastic effects_Epididymis - Hypospermia): 10 mg/kg-day
- NOEL ([1]; Nonneoplastic effects_Forestomach - Epithelium, hyperplasia): 10 mg/kg-day
- NOEL ([1]; Nonneoplastic effects_Forestomach - Inflammation, chronic active): 10 mg/kg-day
- NOEL ([1]; Nonneoplastic effects_Kidney - Nephropathy, chronic progressive): 10 mg/kg-day
- NOEL ([1]; Nonneoplastic effects_Liver - Hepatocyte, Necrosis): 10 mg/kg-day
- LOEL ([1]; Nonneoplastic effects_Liver - Hepatocyte, cytoplasmic alteration): 0.625 mg/kg-day
- LOEL ([1]; Nonneoplastic effects_Liver - Hepatocyte, hypertrophy): 1.25 mg/kg-day
- NOEL ([1]; Nonneoplastic effects_Liver - Hepatocyte, vacuolization cytoplasmic): 10 mg/kg-day
- NOEL ([1]; Nonneoplastic effects_Lymph nodes - Mandibular, atrophy): 10 mg/kg-day
- NOEL ([1]; Nonneoplastic effects_Lymph nodes - Mesenteric, atrophy): 10 mg/kg-day
- NOEL ([1]; Nonneoplastic effects_Nose - Olfactory epithelium, degeneration): 10 mg/kg-day
- NOEL ([1]; Nonneoplastic effects_Nose - Olfactory epithelium, hyperplasia): 10 mg/kg-day
- NOEL ([1]; Nonneoplastic effects_Nose - Olfactory epithelium, inflammation, suppurative): 10 mg/kg-day
- LOEL ([1]; Nonneoplastic effects_Nose - Respiratory epithelium, hyperplasia): 0.625 mg/kg-day
- LOEL ([1]; Nonneoplastic effects_Nose - Respiratory epithelium, inflammation, chronic active): 0.625 mg/kg-day
- NOEL ([1]; Nonneoplastic effects_Spleen - Atrophy): 10 mg/kg-day
- NOEL ([1]; Nonneoplastic effects_Spleen - Extramedullary hematopoiesis, increased): 10 mg/kg-day
- NOEL ([1]; Nonneoplastic effects_Testes - Germinal epithelium, degeneration): 10 mg/kg-day
- NOEL ([1]; Nonneoplastic effects_Testes - Interstitial cell, atrophy): 10 mg/kg-day
- NOEL ([1]; Nonneoplastic effects_Testes - Seminiferous tubule, spermatid retention): 10 mg/kg-day
- NOEL ([1]; Nonneoplastic effects_Thymus - Atrophy): 10 mg/kg-day
- NOEL ([1]; Nonneoplastic effects_Thymus - Lymphocyte, apoptosis): 10 mg/kg-day
- LOEL ([1]; Nonneoplastic effects_Thyroid gland - Follicular cell hypertrophy): 10 mg/kg-day
- LOEL ([1]; Organ weights_Liver - Absolute): 0.625 mg/kg-day
- LOEL ([1]; Organ weights_Liver - Relative): 0.625 mg/kg-day
- NOEL ([1]; Organ weights_R. adrenal gland - Absolute): 10 mg/kg-day
- NOEL ([1]; Organ weights_R. adrenal gland - Relative): 10 mg/kg-day
- LOEL ([1]; Organ weights_R. kidney - Absolute): 1.25 mg/kg-day
- LOEL ([1]; Organ weights_R. kidney - Relative): 0.625 mg/kg-day
- NOEL ([1]; Organ weights_R. testis - Absolute): 10 mg/kg-day
- LOEL ([1]; Organ weights_Spleen - Absolute): 2.5 mg/kg-day
- NOEL ([1]; Organ weights_Spleen - Relative): 10 mg/kg-day
- LOEL ([1]; Organ weights_Thymus - Absolute): 10 mg/kg-day
- NOEL ([1]; Organ weights_Thymus - Relative): 10 mg/kg-day
- LOEL ([1]; Organ weights_Thyroid gland - Absolute): 2.5 mg/kg-day
- LOEL ([1]; Organ weights_Thyroid gland - Relative): 1.25 mg/kg-day
- LOEL ([1]; Reproductive toxicity_Altered sperm parameters): 10 mg/kg-day
- NOEL ([1]; Survival rates): 10 mg/kg-day
- LOEL ([1]; body weight): 5 mg/kg-day
- NOAEL [2]: 50 mg/kg-day
- NOAEL ([3]; acute, duration: 1 days, M, Wistar, Neurological: No alteration in performance on novel object recognition test): 50 mg/kg-day
- LOAEL ([3]; developmental, duration: 21 days, F, Wistar, Developmental: 17-18% reduced motor coordination and increased locomotor activity in pups on PNDs 34-35): 1.6 mg/kg-day
- NOAEL ([3]; short-term, duration: 1 weeks, M, Wistar): 38 mg/kg-day
- NOAEL ([3]; short-term, duration: 1 weeks, M, Wistar, Hepatic: Significant increase in absolute and relative liver weight at ?4.7 mg/kg/day): 9.5 mg/kg-day
- NOAEL ([3]; short-term, duration: 14 days, M, Sprague-Dawley, Hepatic: 45% increase in relative liver weight): 20 mg/kg-day
- LOAEL ([3]; short-term, duration: 28 days, M, Sprague-Dawley, Neurological: Cachexia and lethargy): 5 mg/kg-day
- LEL [4]: 0.01 mg/kg-day
